# Test results published in DBAASP.
# What was measured:
# Experiment in all cases: ≥ marks a high value that may be exact or a test limit, other limits are often not marked, values filed in µg/mL are converted to µM
# [1] = test system: Candida albicans NCTC 3179
# [2] = test system: Escherichia coli ATCC 25922
# [3] = test system: Staphylococcus aureus NCTC 6571
# [4] = test system: Acinetobacter baumannii CCARM 12035
# [5] = test system: Acinetobacter baumannii CCARM 12036
# [6] = test system: Acinetobacter baumannii KCTC 2508
# [7] = test system: Bacillus subtilis KCTC 3028
# [8] = test system: Escherichia coli CCARM 1229
# [9] = test system: Escherichia coli CCARM 1238
# [10] = test system: Escherichia coli KCTC 1682
# [11] = test system: Pseudomonas aeruginosa CCARM 2002
# [12] = test system: Pseudomonas aeruginosa CCARM 2095
# [13] = test system: Pseudomonas aeruginosa KCTC 1637
# [14] = test system: Salmonella typhimurium CCARM 8003
# [15] = test system: Salmonella typhimurium CCARM 8007
# [16] = test system: Salmonella typhimurium KCTC 1926
# [17] = test system: Staphylococcus aureus CCARM 3089
# [18] = test system: Staphylococcus aureus CCARM 3108
# [19] = test system: Staphylococcus aureus CCARM 3126
# [20] = test system: Staphylococcus aureus KCTC 1621
# [21] = test system: Staphylococcus epidermidis KCTC 1917
# Escherichia coli HB101 = test system: Escherichia coli HB101
# [22] = test system: Leishmania major MHOM/IL/67/JERICHO-II
# [23] = test system: Staphylococcus aureus Cowan 1
# [24] = test system: Bacillus subtilis ATCC 11774
# [25] = test system: Enterococcus faecalis FA1
# [26] = test system: Escherichia coli ATCC 12014
# Escherichia coli C25 = test system: Escherichia coli C25
# [27] = test system: Listeria monocytogenes ATCC 15313
# [28] = test system: Porphyromonas gingivalis ATCC 33277
# [29] = test system: Pseudomonas aeruginosa ATCC 10145
# [30] = test system: Salmonella enterica subsp. enterica serovar Typhimurium ATCC BAA-215
# [31] = test system: Staphylococcus aureus ATCC 25923
# [32] = test system: Streptococcus mutans UA159
# [33] = test system: Streptococcus sanguinis ATCC 10556
# [34] = test system: Streptococcus sobrinus ATCC 6715
compound,measurement,setting,value
CC[C@H](C)[C@H](NC(=O)[C@H](CCCN=C(N)N)NC(=O)[C@H](CCC(N)=O)NC(=O)[C@@H](NC(=O)[C@@H](NC(=O)[C@H](CCCN=C(N)N)NC(=O)[C@H](CCCCN)NC(=O)[C@H](Cc1ccccc1)NC(=O)[C@H](CCC(=O)O)NC(=O)[C@@H](N)CCCCN)[C@@H](C)CC)C(C)C)C(=O)N[C@@H](CCCCN)C(=O)N[C@@H](CC(=O)O)C(=O)N[C@@H](Cc1ccccc1)C(=O)N[C@@H](CC(C)C)C(=O)N[C@@H](CCCN=C(N)N)C(=O)N[C@@H](CC(N)=O)C(=O)N[C@@H](CC(C)C)C(=O)N[C@H](C(=O)O)C(C)C [KEFKRIVQRIKDFLRNLV],MIC,[1],≥ 36.5 µM
same,MIC,[2],0.912 µM
same,MIC,[3],3.13 µM
CC[C@H](C)[C@H](NC(=O)[C@H](C)NC(=O)[C@H](CCC(=O)O)NC(=O)[C@H](Cc1cnc[nH]1)NC(=O)[C@@H](NC(=O)[C@@H]1CCCN1C(=O)[C@H](CCC(N)=O)NC(=O)[C@H](Cc1ccccc1)NC(=O)[C@@H](NC(=O)[C@H](CCCCN)NC(=O)[C@H](CCCCN)NC(=O)[C@H](CC(C)C)NC(=O)[C@H](C)NC(=O)[C@H](CC(N)=O)NC(=O)[C@H](CC(C)C)NC(=O)CN)C(C)C)[C@@H](C)CC)C(=O)N[C@@H](CCCCN)C(=O)N[C@@H](CC(C)C)C(=O)N[C@H](C(=O)N[C@@H](CC(N)=O)C(=O)N[C@@H](CC(N)=O)C(=O)N[C@@H](Cc1cnc[nH]1)C(=O)N[C@H](C(=O)N[C@@H](CCC(N)=O)C(=O)O)C(C)C)[C@@H](C)CC [GLNALKKVFQPIHEAIKLINNHVQ],MIC,[4],8 µM
same,MIC,[5],8 µM
same,MIC,[6],8 µM
same,MIC,[7],≥ 32 µM
same,MIC,[8],8 µM
same,MIC,[9],8 µM
same,MIC,[10],8 µM
same,MIC,[11],16 µM
same,MIC,[12],16 µM
same,MIC,[13],16 µM
same,MIC,[14],16 µM
same,MIC,[15],8 µM
same,MIC,[16],8 µM
same,MIC,[17],≥ 32 µM
same,MIC,[18],≥ 32 µM
same,MIC,[19],≥ 32 µM
same,MIC,[20],≥ 32 µM
same,MIC,[21],≥ 32 µM
CSCC[C@H](NC(=O)[C@@H](NC(=O)CNC(=O)[C@H](CC(C)C)NC(=O)[C@H](CCCCN)NC(=O)[C@H](CCCCN)NC(=O)[C@H](CC(C)C)NC(=O)[C@H](CCSC)NC(=O)[C@@H](NC(=O)[C@H](CCCCN)NC(=O)[C@H](Cc1c[nH]c2ccccc12)NC(=O)[C@H](CC(C)C)NC(=O)[C@H](C)N)[C@@H](C)O)[C@@H](C)O)C(=O)N[C@@H](C)C(N)=O [ALWKTMLKKLGTMA],MIC,Escherichia coli HB101,≥ 48.8 µM
same,MIC,[22],≥ 48.8 µM
same,MIC,[23],≥ 48.8 µM
CC[C@H](C)[C@H](NC(=O)CNC(=O)[C@H](CCCN=C(N)N)NC(=O)[C@H](Cc1ccc(O)cc1)NC(=O)[C@@H](NC(=O)[C@H](CCCN=C(N)N)NC(=O)[C@H](Cc1ccccc1)NC(=O)[C@H](Cc1c[nH]c2ccccc12)NC(=O)[C@@H](N)CCCCN)C(C)C)C(=O)N[C@@H](Cc1ccc(O)cc1)C(=O)N[C@@H](CCCN=C(N)N)C(=O)N[C@@H](CCCN=C(N)N)C(=O)N[C@@H](CCCN=C(N)N)C(N)=O [KWFRVYRGIYRRR],MIC,[24],≥ 108 µM
same,MIC,[25],≥ 53.9 µM
same,MIC,[26],3.37 µM
same,MIC,Escherichia coli C25,7.1 µM
same,MIC,[27],6.73 µM
same,MIC,[28],1.68 µM
same,MIC,[29],6.73 µM
same,MIC,[30],6.73 µM
same,MIC,[31],14 µM
CC(C)[C@H](NC(=O)[C@H](CCCCN)NC(=O)[C@H](Cc1ccccc1)NC(=O)[C@H](Cc1ccccc1)NC(=O)[C@H](CCCCN)NC(=O)[C@H](CCCCN)NC(=O)[C@H](Cc1ccccc1)NC(=O)[C@H](Cc1ccccc1)NC(=O)[C@H](CCCCN)NC(=O)CNC(=O)[C@H](Cc1c[nH]c2ccccc12)NC(=O)CN)C(=O)NCC(=O)N[C@@H](CCCCN)C(=O)O [GWGKFFKKFFKVGK],MIC,[32],18.8 µM
same,MIC,[33],18.8 µM
same,MIC,[34],18.8 µM
